According to patent US10174016B2 (BAYER AKTIENGESELLSCHAFT, priority 2014, dated 2019):
Where two headings read alike, the source gives them in different places.

Tests used:
human P2X3 receptor = human P2X3 receptor (Homo sapiens (Human), UniProt P56373); test: Intracellular calcium measurement (FLIPR, Fluo-4) of antagonist activity at human P2X3 receptors; assay type: cell-based; details: read-out: hP2X3 IC50
Summary of the method: (§1)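 Cells expressing human P2X3 or P2X2/3, loaded with Fluo-4, preincubated 30 min at 37° C. with compound (1% DMSO final), then challenged with α,β-Me-ATP at its EC80. Peak FLIPR fluorescence over 90 sec gave % response; IC50, maximal inhibition and Hill slope from triplicates.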

human P2X2/3 receptor = human P2X2/3 receptor (Homo sapiens (Human), UniProt P56373+Q9UBL9); test: Intracellular calcium measurement (FLIPR, Fluo-4) of antagonist activity at human P2X2/3 receptors; assay type: cell-based; details: human P2X2/3, FLIPR calcium assay, agonist α,β-Me-ATP; read-out: hP2X2/3 IC50
Summary of the method: as §1

[1] = human P2X3, FLIPR calcium assay, agonist α,β-Me-ATP

human P2X2/3 receptor, sequence (P56373 whole entry): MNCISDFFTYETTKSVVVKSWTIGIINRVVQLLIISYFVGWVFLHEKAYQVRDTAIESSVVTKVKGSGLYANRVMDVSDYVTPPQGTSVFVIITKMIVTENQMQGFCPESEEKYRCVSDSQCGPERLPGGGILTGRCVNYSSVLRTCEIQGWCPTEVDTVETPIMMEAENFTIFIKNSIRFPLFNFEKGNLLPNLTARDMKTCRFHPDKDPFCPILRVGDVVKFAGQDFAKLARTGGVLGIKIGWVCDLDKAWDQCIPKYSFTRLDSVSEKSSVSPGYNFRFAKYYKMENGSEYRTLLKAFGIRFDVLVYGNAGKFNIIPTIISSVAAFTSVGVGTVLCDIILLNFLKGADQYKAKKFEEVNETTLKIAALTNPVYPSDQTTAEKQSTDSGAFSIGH
human P2X2/3 receptor, sequence (Q9UBL9 whole entry): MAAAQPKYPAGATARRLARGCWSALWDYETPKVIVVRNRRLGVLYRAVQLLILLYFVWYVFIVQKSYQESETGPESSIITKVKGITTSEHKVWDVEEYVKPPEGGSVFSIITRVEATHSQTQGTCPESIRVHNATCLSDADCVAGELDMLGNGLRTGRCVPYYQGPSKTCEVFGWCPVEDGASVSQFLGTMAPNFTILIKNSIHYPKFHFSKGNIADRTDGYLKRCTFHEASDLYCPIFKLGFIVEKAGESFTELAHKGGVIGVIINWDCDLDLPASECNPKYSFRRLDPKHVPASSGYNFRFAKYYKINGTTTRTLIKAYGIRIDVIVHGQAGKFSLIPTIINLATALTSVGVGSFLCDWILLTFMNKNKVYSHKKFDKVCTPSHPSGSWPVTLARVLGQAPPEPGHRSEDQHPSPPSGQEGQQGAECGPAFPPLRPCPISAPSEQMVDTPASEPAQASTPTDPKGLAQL
human P2X3 receptor, sequence (P56373 whole entry): as the sequence (P56373 whole entry) above

Compound	IC50 (human P2X3 receptor; [1]) [nM]	IC50 (human P2X2/3 receptor) [nM]	IC50 (human P2X3 receptor) [nM]
Cc1cnc(-c2cc(O[C@@H]3CCN(C)C3)cc(C(=O)N[C@H](C)c3cnc(C(F)(F)F)nc3)c2)s1 [Example 141, 3-{[(3R)-1-Methylpyrrolidin-3-yl]oxy}-5-(5-methyl-1,3-thiazol-2-yl)-N-{(1R)-1-[2-(trifluoromethyl)pyrimidin-5-yl]ethyl}benzamide]	43	2200	
Cc1cnc(-c2cc(OC3CCOCC3)cc(C(=O)N[C@H](C)c3nnc(C)s3)c2)s1 [Example 92, N-[(1R)-1-(5-Methyl-1,3,4-thiadiazol-2-yl)ethyl]-3-(5-methyl-1,3-thiazol-2-yl)-5-(tetrahydro-2H-pyran-4-yloxy)benzamide]	24	317	
Cc1ccc([C@@H](C)NC(=O)c2cc(Oc3nccs3)cc(-c3ncc(C)s3)c2)cn1 [Example 114, N-[(1R)-1-(6-Methylpyridin-3-yl)ethyl]-3-(5-methyl-1,3-thiazol-2-yl)-5-(1,3-thiazol-2-yloxy)benzamide]	38	414	
Cc1cnc(-c2cc(OC3COC3)cc(C(=O)N[C@H](C)c3nnc(C)s3)c2)s1 [Example 50, N-[(1R)-1-(5-Methyl-1,3,4-thiadiazol-2-yl)ethyl]-3-(5-methyl-1,3-thiazol-2-yl)-5-(oxetan-3-yloxy)benzamide]	77	982	
CCN1CCO[C@H](COc2cc(C(=O)N[C@H](C)c3cnc(C(F)(F)F)nc3)cc(-c3ncc(C)s3)c2)C1 [Example 411, 3-{[(2S)-4-ethylmorpholin-2-yl]methoxy}-5-(5-methyl-1,3-thiazol-2-yl)-N-{(1R)-1-[2-(trifluoromethyl)pyrimidin-5-yl]ethyl}benzamide]	20	697	
COC(=O)N1CC2(COc3cc(C(=O)N[C@H](C)c4cnc(C(F)(F)F)nc4)cc(-c4ncc(C)s4)c3)CC1CO2 (stereo partly drawn) [Example 409, Methyl 1-{[3-(5-methyl-1,3-thiazol-2-yl)-5-({(1R)-1-[2-(trifluoromethyl)pyrimidin-5-yl]ethyl}carbamoyl)phenoxy]methyl}-2-oxa-5-azabicyclo[2.2.1]heptane-5-carboxylate]	22	976	
C#CCOc1cc(C(=O)N[C@H](C)c2ccc(C)nc2)cc(-c2ncc(C)s2)c1 [Example 33, N-[(1R)-1-(6-Methylpyridin-3-yl)ethyl]-3-(5-methyl-1,3-thiazol-2-yl)-5-(prop-2-yn-1-yloxy)benzamide]	29	912	
Cc1cnc(-c2cc(OCCn3cncn3)cc(C(=O)N[C@H](C)c3ccc(C(F)(F)F)nc3)c2)s1 [Example 160, 3-(5-methyl-1,3-thiazol-2-yl)-5-[2-(1H-1,2,4-triazol-1-yl)ethoxy]-N-{(1R)-1-[6-(trifluoromethyl)pyridin-3-yl]ethyl}benzamide]	28	1010	
CC(C)c1cnc(-c2cc(OC[C@@H]3CCOC3)cc(C(=O)N[C@H](C)c3ccc(C(F)(F)F)nn3)c2)s1 [Example 293, 3-[5-(propan-2-yl)-1,3-thiazol-2-yl]-5-[(3R)-tetrahydrofuran-3-ylmethoxy]-N-{(1R)-1-[6-(trifluoromethyl)pyridazin-3-yl]ethyl}benzamide]	63	1160	
C#CCOc1cc(C(=O)NCc2ccc(C)nn2)cc(-c2ncc(C)s2)c1 [Example 31, N-[(6-Methylpyridazin-3-yl)methyl]-3-(5-methyl-1,3-thiazol-2-yl)-5-(prop-2-yn-1-yloxy)benzamide]	173	≥ 10000	
Cc1ccc(Oc2cc(C(=O)N[C@H](C)c3cnc(C(F)(F)F)nc3)cc(-c3ncc(C)s3)c2)nn1 [Example 170, 3-[(6-methylpyridazin-3-yl)oxy]-5-(5-methyl-1,3-thiazol-2-yl)-N-{(1R)-1-[2-(trifluoromethyl)pyrimidin-5-yl]ethyl}benzamide]	165	2020	
CCc1cnc(-c2cc(OC[C@H]3CCOC3)cc(C(=O)N[C@H](C)c3cnc(C(F)(F)F)nc3)c2)s1 [Example 278, 3-(5-ethyl-1,3-thiazol-2-yl)-5-[(3S)-tetrahydrofuran-3-ylmethoxy]-N-{(1R)-1-[2-(trifluoromethyl)pyrimidin-5-yl]ethyl}benzamide]	2	23	
Cc1cnc(-c2cc(OC3COC3)cc(C(=O)N[C@H](C)c3ccc(C(F)(F)F)nc3)c2)s1 [Example 148, 3-(5-methyl-1,3-thiazol-2-yl)-5-(oxetan-3-yloxy)-N-{(1R)-1-[6-(trifluoromethyl)pyridin-3-yl]ethyl}benzamide]	33	794	
CCc1cnc(-c2cc(OC[C@H]3CCCO3)cc(C(=O)N[C@H](C)c3cnc(C)cn3)c2)s1 [Example 268, 3-(5-ethyl-1,3-thiazol-2-yl)-N-[(1R)-1-(5-methylpyrazin-2-yl)ethyl]-5-[(2R)-tetrahydrofuran-2-ylmethoxy]benzamide]		392	14
Cc1cnc(-c2cc(OC3CCS(=O)(=O)CC3)cc(C(=O)N[C@H](C)c3ccc(C(F)(F)F)nc3)c2)s1 [Example 233, 3-[(1,1-dioxidotetrahydro-2H-thiopyran-4-yl)oxy]-5-(5-methyl-1,3-thiazol-2-yl)-N-{(1R)-1-[6-(trifluoromethyl)pyridin-3-yl]ethyl}benzamide]	16	753	
Cc1cnc(-c2cc(OC3CCOCC3)cc(C(=O)N[C@H](C)c3cnc(C(F)(F)F)nc3)c2)s1 [Example 85, 3-(5-Methyl-1,3-thiazol-2-yl)-5-(tetrahydro-2H-pyran-4-yloxy)-N-{(1R)-1-[2-(trifluoromethyl)pyrimidin-5-yl]ethyl}benzamide]	10	36	
Cc1ccc([C@@H](C)NC(=O)c2cc(OC[C@H]3CCOC3)cc(-c3ncc(Cl)s3)c2)nn1 [Example 316, 3-(5-chloro-1,3-thiazol-2-yl)-N-[(1R)-1-(6-methylpyridazin-3-yl)ethyl]-5-[(3S)-tetrahydrofuran-3-ylmethoxy]benzamide]		250	21

Now from value to molecule, other results behind:

IC50 (human P2X3 receptor; [1]) [nM]	IC50 (human P2X2/3 receptor) [nM]	Compound	IC50 (human P2X3 receptor) [nM]
6	16	Cc1cc(Oc2cc(C(=O)N[C@H](C)c3ccc(C)nn3)cc(-c3ncc(C)s3)c2)ccn1 [Example 100, N-[(1R)-1-(6-Methylpyridazin-3-yl)ethyl]-3-[(2-methylpyridin-4-yl)oxy]-5-(5-methyl-1,3-thiazol-2-yl)benzamide]	
11	330	Cc1cnc(-c2cc(OC[C@H]3CCOC3)cc(C(=O)N[C@H](C)c3ccc(C(F)(F)F)nn3)c2)s1 [Example 72, 3-(5-Methyl-1,3-thiazol-2-yl)-5-[(3S)-tetrahydrofuran-3-ylmethoxy]-N-[(1R)-1-[6-(trifluoromethyl)pyridazin-3-yl]ethyl]benzamide]	
11	328	Cc1cnc(-c2cc(OC[C@H]3CN(C)CCO3)cc(C(=O)N[C@H](C)c3ccc(C(F)F)nc3)c2)s1 [Example 369, N-{(1R)-1-[6-(difluoromethyl)pyridin-3-yl]ethyl}-3-{[(2R)-4-methylmorpholin-2-yl]methoxy}-5-(5-methyl-1,3-thiazol-2-yl)benzamide]	
45	952	Cc1ccc([C@@H](C)NC(=O)c2cc(O[C@@H]3CCOC3)cc(-c3ncc(Cl)s3)c2)nn1 [Example 317, 3-(5-chloro-1,3-thiazol-2-yl)-N-[(1R)-1-(6-methylpyridazin-3-yl)ethyl]-5-[(3R)-tetrahydrofuran-3-yloxy]benzamide]	
56	933	C[C@@H](NC(=O)c1cc(OC[C@@H]2CCOC2)cc(-c2ncc(C3CCC3)s2)c1)c1ccc(C(F)(F)F)nn1 [Example 297, 3-(5-cyclobutyl-1,3-thiazol-2-yl)-5-[(3R)-tetrahydrofuran-3-ylmethoxy]-N-{(1R)-1-[6-(trifluoromethyl)pyridazin-3-yl]ethyl}benzamide]	
115	956	Cc1ccc([C@@H](C)NC(=O)c2cc(OC[C@H]3CCOC3)cc(-c3ncc(C(C)C)s3)c2)nn1 [Example 279, N-[(1R)-1-(6-methylpyridazin-3-yl)ethyl]-3-[5-(propan-2-yl)-1,3-thiazol-2-yl]-5-[(3S)-tetrahydrofuran-3-ylmethoxy]benzamide]	
82	621	Cc1ccc([C@@H](C)NC(=O)c2cc(OC3COC3)cc(-c3ncc(C)s3)c2)nn1 [Example 47, N-[(1R)-1-(6-Methylpyridazin-3-yl)ethyl]-3-(5-methyl-1,3-thiazol-2-yl)-5-(oxetan-3-yloxy)benzamide]	
266	982	Cc1ccc([C@@H](C)NC(=O)c2cc(O[C@@H]3CCOC3)cc(-c3ncc(C(C)C)s3)c2)nn1 [Example 246, N-[(1R)-1-(6-methylpyridazin-3-yl)ethyl]-3-[5-(propan-2-yl)-1,3-thiazol-2-yl]-5-[(3R)-tetrahydrofuran-3-yloxy]benzamide]	
10	2180	CCc1cnc(-c2cc(OC[C@H]3CNCCO3)cc(C(=O)N[C@H](C)c3ccc(C(F)(F)F)nn3)c2)s1 [Example 415, 3-(5-ethyl-1,3-thiazol-2-yl)-5-[(2R)-morpholin-2-ylmethoxy]-N-{(1R)-1-[6-(trifluoromethyl)pyridazin-3-yl]ethyl}benzamide]	
61	364	CC#CCOc1cc(C(=O)N[C@H](C)c2ccc(C)nn2)cc(-c2ncc(C)s2)c1 [Example 191, 3-(but-2-yn-1-yloxy)-N-[(1R)-1-(6-methylpyridazin-3-yl)ethyl]-5-(5-methyl-1,3-thiazol-2-yl) benzamide]	
3	90	Cc1ccc([C@@H](C)NC(=O)c2cc(OCC3CC3)cc(-c3ncc(C)s3)c2)nn1 [Example 8, 3-(Cyclopropylmethoxy)-N-[(1R)-1-(6-methylpyridazin-3-yl)ethyl]-5-(5-methyl-1,3-thiazol-2-yl)benzamide]	
